The test system of this experiment is SARS-CoV-2. The experiment in a line: Antiviral activity against SARS-CoV-2 infected in human A549 cells overexpressing ACE2 assessed as reduction in virus-induced cytopathic effect at 625 nM incubated for 1 hr followed by viral infection measured after 96 hrs by inverted microscopy. The format is functional, organism-based. To be noted: Severe acute respiratory syndrome coronavirus 2, time 97.0 hrs. For orientation: Cytopathic effects are the visible damage that an infection or toxin causes in cultured cells.

SMILES strings stand for the structures. Calls of active or inactive are those of the source. No cut-off for these calls is given here.

As to `CC[C@H](C)[C@@H](C(=O)O[C@@H](CC(C)C)C(=O)N[C@@H](CC(C)C)C(=O)N[C@@H](C)/C=C/C(=O)N1C(=O)C=C(OC)[C@@H]1C)N(C)C` [GALLINAMIDE A], the result was Active.

Source of the values: ChEMBL document CHEMBL5154645, “Potent Anti-SARS-CoV-2 Activity by the Natural Product Gallinamide A and Analogues via Inhibition of Cathepsin L” (J Med Chem, 2022).
